According to the supplement of paper PMC5908809:

Tests used:
[1] = test system: normal NK cells expanded with K562-aAPC; experiment: percent inhibition of viability; higher = more inhibition; settings: 72 h, IL-2 2.5 ng/mL
Description: (§1)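 Drug sensitivity and resistance testing on K562-aAPC-expanded normal NK cells: 5 concentrations (10-fold steps over a 10,000-fold range), 72 h at 37 °C, viability by CellTiter-Glo normalised to DMSO and benzethonium chloride controls; DSS from the fitted curve.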

DERL-7 (IL-2 2.5 ng/mL) [2] = experiment: as above; settings: 72 h
IMC-1 (IL-2 20 ng/mL) [3] = experiment: as above; settings: 72 h
KAI3 (IL-2 2.5 ng/mL) [4] = experiment: as above; settings: 72 h
KHYG-1 (IL-2 2.5 ng/mL) [5] = experiment: as above; settings: 72 h
NK-92 (IL-2 2.5 ng/mL) [6] = experiment: as above; settings: 72 h
NK-YS (IL-2 2.5 ng/mL) [7] = experiment: as above; settings: 72 h
NKL (IL-2 2.5 ng/mL) [8] = experiment: as above; settings: 72 h
SNK-6 (IL-2 2.5 ng/mL) [9] = experiment: as above; settings: 72 h
YT (IL-2 2.5 ng/mL) [10] = experiment: as above; settings: 72 h
[11] = test system: normal primary NK cells, pool 1 (3 donors) (IL-2 2.5 ng/mL); experiment: as above; settings: 72 h
[12] = test system: normal primary NK cells, pool 1 (3 donors), resting (IL-2 0 ng/mL); experiment: as above; settings: 72 h
[13] = test system: normal primary NK cells, pool 2 (3 donors) (IL-2 2.5 ng/mL); experiment: as above; settings: 72 h
[14] = test system: normal primary NK cells, pool 3 (3 donors) (IL-2 2.5 ng/mL); experiment: as above; settings: 72 h
[15] = test system: normal NK cells expanded with K562-aAPC; experiment: drug sensitivity score (DSS) (DSS units); higher = more sensitive; extreme values may be limits of the assay; settings: 72 h; IL-2 2.5 ng/mL
Description: as §1

DERL-7 (IL-2 2.5 ng/mL) [16] = experiment: as above; settings: 72 h
IMC-1 (IL-2 20 ng/mL) [17] = experiment: as above; settings: 72 h
KAI3 (IL-2 2.5 ng/mL) [18] = experiment: as above; settings: 72 h
KHYG-1 (IL-2 2.5 ng/mL) [19] = experiment: as above; settings: 72 h
NK-92 (IL-2 2.5 ng/mL) [20] = experiment: as above; settings: 72 h
NK-YS (IL-2 2.5 ng/mL) [21] = experiment: as above; settings: 72 h
NKL (IL-2 2.5 ng/mL) [22] = experiment: as above; settings: 72 h
SNK-6 (IL-2 2.5 ng/mL) [23] = experiment: as above; settings: 72 h
YT (IL-2 2.5 ng/mL) [24] = experiment: as above; settings: 72 h
[25] = test system: normal primary NK cells, pool 1 (3 donors) (IL-2 2.5 ng/mL); experiment: as above; settings: 72 h
[26] = test system: normal primary NK cells, pool 1 (3 donors), resting (IL-2 0 ng/mL); experiment: as above; settings: 72 h
[27] = test system: normal primary NK cells, pool 2 (3 donors) (IL-2 2.5 ng/mL); experiment: as above; settings: 72 h
[28] = test system: normal primary NK cells, pool 3 (3 donors) (IL-2 2.5 ng/mL); experiment: as above; settings: 72 h

CCc1cncnc1N1CCN(Cc2nc3ccc(C(F)(F)F)cc3[nH]2)CC1 (max concentration tested 10000 nM)
percent inhibition of viability [%]
Settings | 1 nM | 10 nM | 100 nM | 1000 nM | 10000 nM
DERL-7 (IL-2 2.5 ng/mL) [2] | 3.43 | 7.18 | -5.16 | -1.27 | 14.8
IMC-1 (IL-2 20 ng/mL) [3] | -6.13 | -3.43 | 3.72 | 11.3 | 90
KAI3 (IL-2 2.5 ng/mL) [4] | -0.12 | -5.66 | -9.54 | -2.26 | 28.4
KHYG-1 (IL-2 2.5 ng/mL) [5] | -4.31 | -8.31 | -0.12 | 17.2 | 49.7
NK-92 (IL-2 2.5 ng/mL) [6] | -1.05 | 10.1 | 6.83 | 20.4 | 62.3
NK-YS (IL-2 2.5 ng/mL) [7] | -2.32 | -5.55 | -2.77 | 9.57 | 47.8
NKL (IL-2 2.5 ng/mL) [8] | -11.3 | -11 | -6.3 | 10.8 | 60.8
SNK-6 (IL-2 2.5 ng/mL) [9] | -7.09 | -9.08 | 8.29 | 30.2 | 30.4
YT (IL-2 2.5 ng/mL) [10] | -1.53 | -2.69 | 2.06 | 11.5 | 41.9
[1] | -4.68 | -5.08 | -4.29 | 0.89 | 5
[11] | -2.5 | 14.2 | 12.3 | 11.8 | 63.6
[12] | -8.97 | 13.4 | 10 | 13.6 | 75.6
[13] | -7.09 | 4.46 | 7.58 | 8.67 | 44.9
[14] | -9.93 | 7.71 | 7.04 | -6.89 | 26.4

Settings | drug sensitivity score
DERL-7 (IL-2 2.5 ng/mL) [16] | 0.17
IMC-1 (IL-2 20 ng/mL) [17] | 6.88
KAI3 (IL-2 2.5 ng/mL) [18] | 1.03
KHYG-1 (IL-2 2.5 ng/mL) [19] | 5.08
NK-92 (IL-2 2.5 ng/mL) [20] | 5.84
NK-YS (IL-2 2.5 ng/mL) [21] | 4.07
NKL (IL-2 2.5 ng/mL) [22] | 5.1
SNK-6 (IL-2 2.5 ng/mL) [23] | 6.35
YT (IL-2 2.5 ng/mL) [24] | 3.86
[15] | 0
[25] | 5.45
[26] | 6.44
[27] | 3.74
[28] | 0.75
